Assay type in all cases: biochemical
One test concerns the target T1, NEK2 (Homo sapiens, UniProt P51955).
T1 sequence (P51955 1-445): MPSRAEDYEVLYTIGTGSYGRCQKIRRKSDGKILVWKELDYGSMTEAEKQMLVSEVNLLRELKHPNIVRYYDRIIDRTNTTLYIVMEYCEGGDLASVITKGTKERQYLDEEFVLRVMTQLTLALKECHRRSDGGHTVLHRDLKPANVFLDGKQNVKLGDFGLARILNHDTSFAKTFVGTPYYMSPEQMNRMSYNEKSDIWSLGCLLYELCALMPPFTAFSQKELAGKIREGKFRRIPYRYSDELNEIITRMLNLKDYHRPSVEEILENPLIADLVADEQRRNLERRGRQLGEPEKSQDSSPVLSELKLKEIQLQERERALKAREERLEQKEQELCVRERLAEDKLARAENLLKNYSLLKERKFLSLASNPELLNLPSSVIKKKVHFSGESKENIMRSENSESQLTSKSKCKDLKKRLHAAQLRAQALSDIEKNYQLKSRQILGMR
The test is described as follows: ExpresS Diversity Kinase Profile, Cerep (LANCE): NEK2. On the technique in general: In TR-FRET formats the signal depends on donor and acceptor labels being close together.

The target in a further test is JNK1 (Homo sapiens, UniProt P45983). The test is described as follows: ExpresS Diversity Kinase Profile, Cerep (LANCE): JNK1.
A further test addresses CDK1 (Homo sapiens, UniProt P06493). The test is described as follows: ExpresS Diversity Kinase Profile, Cerep (LANCE): CDK1.
The target in a further test is T2, JAK3 (Homo sapiens, UniProt P52333).
T2 sequence (P52333 1-1124): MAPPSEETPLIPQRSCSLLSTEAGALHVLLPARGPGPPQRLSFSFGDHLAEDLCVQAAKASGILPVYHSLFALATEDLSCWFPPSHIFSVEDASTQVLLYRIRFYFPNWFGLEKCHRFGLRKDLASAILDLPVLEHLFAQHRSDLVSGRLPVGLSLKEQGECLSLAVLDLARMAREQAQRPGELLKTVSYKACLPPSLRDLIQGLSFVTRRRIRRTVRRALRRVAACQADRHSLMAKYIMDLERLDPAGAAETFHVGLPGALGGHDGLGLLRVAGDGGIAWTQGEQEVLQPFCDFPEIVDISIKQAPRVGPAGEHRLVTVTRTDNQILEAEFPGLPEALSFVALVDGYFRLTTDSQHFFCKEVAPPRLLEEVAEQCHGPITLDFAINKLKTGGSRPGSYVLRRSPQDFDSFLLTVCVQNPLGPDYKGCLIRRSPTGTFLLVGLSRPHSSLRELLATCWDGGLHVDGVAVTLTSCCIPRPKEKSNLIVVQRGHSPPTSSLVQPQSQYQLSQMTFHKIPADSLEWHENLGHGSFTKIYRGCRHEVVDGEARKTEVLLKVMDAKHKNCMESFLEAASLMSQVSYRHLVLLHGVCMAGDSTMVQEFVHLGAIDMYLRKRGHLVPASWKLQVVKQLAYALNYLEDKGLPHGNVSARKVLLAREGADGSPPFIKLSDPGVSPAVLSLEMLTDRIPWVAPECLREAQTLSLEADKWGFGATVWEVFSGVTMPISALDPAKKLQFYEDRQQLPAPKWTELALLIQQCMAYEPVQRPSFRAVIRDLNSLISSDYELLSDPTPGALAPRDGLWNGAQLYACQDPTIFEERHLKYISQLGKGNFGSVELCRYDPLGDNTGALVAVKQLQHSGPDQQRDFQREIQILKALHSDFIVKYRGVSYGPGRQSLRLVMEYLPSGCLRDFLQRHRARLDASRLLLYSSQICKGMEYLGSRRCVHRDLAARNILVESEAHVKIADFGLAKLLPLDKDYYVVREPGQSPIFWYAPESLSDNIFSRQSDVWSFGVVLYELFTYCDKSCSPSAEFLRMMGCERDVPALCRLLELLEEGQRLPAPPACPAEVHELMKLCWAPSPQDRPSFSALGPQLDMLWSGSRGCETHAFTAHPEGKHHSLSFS
The test is described as follows: ExpresS Diversity Kinase Profile, Cerep (LANCE): JAK3.

The target of the next test is Src (Homo sapiens, UniProt P12931). The test is described as follows: ExpresS Diversity Kinase Profile, Cerep (LANCE): Src.
In another test the target is T3, SGK1 (Homo sapiens, UniProt O00141).
T3 sequence (O00141 1-431): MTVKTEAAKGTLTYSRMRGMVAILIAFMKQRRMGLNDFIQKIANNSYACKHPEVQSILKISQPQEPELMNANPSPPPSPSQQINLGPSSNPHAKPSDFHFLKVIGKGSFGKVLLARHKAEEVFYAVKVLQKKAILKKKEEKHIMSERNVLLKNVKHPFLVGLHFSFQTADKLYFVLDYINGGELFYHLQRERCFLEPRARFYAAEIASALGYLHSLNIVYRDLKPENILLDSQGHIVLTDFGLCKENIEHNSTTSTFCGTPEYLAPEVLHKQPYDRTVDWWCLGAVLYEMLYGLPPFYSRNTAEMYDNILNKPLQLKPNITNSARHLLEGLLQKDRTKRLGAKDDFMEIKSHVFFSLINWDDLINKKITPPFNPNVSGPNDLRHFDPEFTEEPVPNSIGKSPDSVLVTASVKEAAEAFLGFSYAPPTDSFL
The test is described as follows: ExpresS Diversity Kinase Profile, Cerep (LANCE): SGK1.

In a further test the target is c-Met (Homo sapiens, UniProt P08581). The test is described as follows: ExpresS Diversity Kinase Profile, Cerep (LANCE): c-Met.
In a further test the target is VEGFR2 (Homo sapiens, UniProt P35968). Nature of the test: ExpresS Diversity Kinase Profile, Cerep (LANCE): VEGFR2.
The next test has as its target IRK (Homo sapiens, UniProt P06213). Nature of the test: ExpresS Diversity Kinase Profile, Cerep (LANCE): IRK.
A further test deals with PAK2 (Homo sapiens, UniProt Q13177). The test is described as follows: ExpresS Diversity Kinase Profile, Cerep (LANCE): PAK2.
Another test deals with MARK1 (Homo sapiens, UniProt Q9P0L2). The test is described as follows: ExpresS Diversity Kinase Profile, Cerep (LANCE): MARK1.
Setting [1] is: Flag: Interference, read-out: % Inhibition of control values, 1st measurement.
The mark [2] stands for this setting: Flag: Interference, read-out: % Inhibition of control values, 2nd measurement.
[3] abbreviates: n = 2, Flag: Interference, read-out: % Inhibition of control values, Mean.
The mark [4] stands for this setting: n = 2, read-out: % Inhibition of control values, Mean.
Setting [5] is: read-out: % Inhibition of control values, 1st measurement.
Setting [6] is: read-out: % Inhibition of control values, 2nd measurement.

We go through two compounds from publication PMC6138237, “Machine intelligence decrypts β-lapachone as an allosteric 5-lipoxygenase inhibitor” (Chemical Science, 2018).

Where two headings read alike, the source gives them in different places.

Broadly, the inhibition is the change of the read-out against control, counted positive when it falls.

Sequence of JNK1 (P45983 whole entry): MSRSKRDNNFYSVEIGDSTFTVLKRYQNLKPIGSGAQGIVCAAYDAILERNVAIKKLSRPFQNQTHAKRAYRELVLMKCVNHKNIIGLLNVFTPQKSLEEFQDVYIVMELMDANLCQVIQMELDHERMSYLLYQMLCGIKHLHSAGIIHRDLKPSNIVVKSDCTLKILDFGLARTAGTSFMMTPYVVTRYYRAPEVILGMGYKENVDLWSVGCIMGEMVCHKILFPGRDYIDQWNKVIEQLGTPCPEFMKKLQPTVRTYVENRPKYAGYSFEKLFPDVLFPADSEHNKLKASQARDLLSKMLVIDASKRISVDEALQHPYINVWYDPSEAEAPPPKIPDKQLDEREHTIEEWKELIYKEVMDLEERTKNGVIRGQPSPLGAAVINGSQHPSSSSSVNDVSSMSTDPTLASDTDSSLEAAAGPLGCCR
Sequence of CDK1 (P06493 whole entry): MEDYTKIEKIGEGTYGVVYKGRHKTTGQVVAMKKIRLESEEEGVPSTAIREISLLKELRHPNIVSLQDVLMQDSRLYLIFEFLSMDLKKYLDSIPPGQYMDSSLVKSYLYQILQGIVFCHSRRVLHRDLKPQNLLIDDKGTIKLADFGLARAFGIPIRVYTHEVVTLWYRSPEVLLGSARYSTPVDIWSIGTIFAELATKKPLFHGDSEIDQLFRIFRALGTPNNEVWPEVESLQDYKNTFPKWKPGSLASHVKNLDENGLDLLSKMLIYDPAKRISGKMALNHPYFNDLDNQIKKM
Sequence of CDK1 (P14635 whole entry partner): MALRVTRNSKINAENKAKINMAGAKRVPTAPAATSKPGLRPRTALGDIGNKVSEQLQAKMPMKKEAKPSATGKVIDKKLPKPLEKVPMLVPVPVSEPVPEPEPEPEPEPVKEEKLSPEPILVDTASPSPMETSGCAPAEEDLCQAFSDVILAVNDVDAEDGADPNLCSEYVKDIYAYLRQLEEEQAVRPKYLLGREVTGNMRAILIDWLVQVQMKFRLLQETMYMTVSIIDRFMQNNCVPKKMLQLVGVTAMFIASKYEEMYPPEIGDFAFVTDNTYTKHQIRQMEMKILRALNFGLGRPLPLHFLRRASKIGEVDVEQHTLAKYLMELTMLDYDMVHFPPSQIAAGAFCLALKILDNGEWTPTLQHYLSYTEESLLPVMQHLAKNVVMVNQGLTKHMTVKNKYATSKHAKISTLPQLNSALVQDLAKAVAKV
Sequence of c-Met (P08581 25-1390): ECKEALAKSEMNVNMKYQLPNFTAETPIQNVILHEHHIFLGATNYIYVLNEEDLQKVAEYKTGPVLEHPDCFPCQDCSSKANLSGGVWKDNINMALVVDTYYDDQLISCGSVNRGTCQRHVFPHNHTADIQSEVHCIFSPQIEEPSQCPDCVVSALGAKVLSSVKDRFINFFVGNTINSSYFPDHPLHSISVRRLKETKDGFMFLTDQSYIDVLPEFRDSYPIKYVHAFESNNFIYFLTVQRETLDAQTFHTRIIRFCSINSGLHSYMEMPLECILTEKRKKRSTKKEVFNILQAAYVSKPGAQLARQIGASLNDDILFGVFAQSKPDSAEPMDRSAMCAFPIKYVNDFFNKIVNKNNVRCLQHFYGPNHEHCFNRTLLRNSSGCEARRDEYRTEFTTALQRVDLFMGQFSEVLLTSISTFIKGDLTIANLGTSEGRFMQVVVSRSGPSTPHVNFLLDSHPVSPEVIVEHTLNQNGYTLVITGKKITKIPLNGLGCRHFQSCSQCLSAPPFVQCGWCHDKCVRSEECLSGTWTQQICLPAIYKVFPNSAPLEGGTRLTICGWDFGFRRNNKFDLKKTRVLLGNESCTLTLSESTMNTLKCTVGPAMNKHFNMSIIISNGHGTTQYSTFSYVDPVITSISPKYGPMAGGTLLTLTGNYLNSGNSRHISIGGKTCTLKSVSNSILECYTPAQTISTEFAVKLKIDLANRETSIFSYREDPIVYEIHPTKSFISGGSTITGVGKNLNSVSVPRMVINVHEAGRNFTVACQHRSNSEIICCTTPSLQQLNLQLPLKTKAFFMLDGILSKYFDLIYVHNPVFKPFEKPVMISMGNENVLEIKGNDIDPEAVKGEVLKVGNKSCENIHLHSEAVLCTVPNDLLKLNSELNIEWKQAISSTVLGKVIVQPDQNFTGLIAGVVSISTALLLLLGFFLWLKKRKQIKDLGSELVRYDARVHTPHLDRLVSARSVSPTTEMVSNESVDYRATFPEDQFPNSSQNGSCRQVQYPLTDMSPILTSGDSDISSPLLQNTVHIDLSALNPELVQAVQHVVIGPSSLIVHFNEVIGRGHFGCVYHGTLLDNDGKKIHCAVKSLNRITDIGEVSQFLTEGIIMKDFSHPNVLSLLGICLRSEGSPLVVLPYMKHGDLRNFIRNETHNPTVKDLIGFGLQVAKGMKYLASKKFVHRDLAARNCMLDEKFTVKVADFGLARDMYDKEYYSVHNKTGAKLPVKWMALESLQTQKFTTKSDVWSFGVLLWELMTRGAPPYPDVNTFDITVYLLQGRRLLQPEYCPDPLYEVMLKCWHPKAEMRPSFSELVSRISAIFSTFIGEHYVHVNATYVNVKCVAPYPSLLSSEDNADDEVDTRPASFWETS
Sequence of MARK1 (Q9P0L2 whole entry): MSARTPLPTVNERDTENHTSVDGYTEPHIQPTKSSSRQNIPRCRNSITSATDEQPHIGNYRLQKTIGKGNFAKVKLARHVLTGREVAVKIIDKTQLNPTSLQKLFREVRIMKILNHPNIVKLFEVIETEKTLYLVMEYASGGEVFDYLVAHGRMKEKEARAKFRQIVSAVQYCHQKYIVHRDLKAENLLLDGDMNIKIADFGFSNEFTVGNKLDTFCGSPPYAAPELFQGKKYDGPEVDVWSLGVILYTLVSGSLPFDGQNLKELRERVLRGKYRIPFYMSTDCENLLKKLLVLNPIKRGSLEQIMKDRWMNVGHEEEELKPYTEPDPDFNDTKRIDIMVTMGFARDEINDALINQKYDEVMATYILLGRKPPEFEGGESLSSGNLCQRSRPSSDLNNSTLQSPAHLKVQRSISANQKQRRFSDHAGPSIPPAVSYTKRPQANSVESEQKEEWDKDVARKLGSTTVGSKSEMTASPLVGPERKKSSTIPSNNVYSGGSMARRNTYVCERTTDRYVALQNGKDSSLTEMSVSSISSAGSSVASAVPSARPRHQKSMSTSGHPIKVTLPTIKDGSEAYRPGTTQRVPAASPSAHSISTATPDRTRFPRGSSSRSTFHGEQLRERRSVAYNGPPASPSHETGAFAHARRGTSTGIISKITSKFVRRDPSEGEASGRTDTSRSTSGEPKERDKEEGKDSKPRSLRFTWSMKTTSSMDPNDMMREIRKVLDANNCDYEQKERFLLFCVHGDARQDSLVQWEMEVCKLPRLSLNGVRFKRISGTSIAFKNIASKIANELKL
Sequence of Src (P12931 whole entry): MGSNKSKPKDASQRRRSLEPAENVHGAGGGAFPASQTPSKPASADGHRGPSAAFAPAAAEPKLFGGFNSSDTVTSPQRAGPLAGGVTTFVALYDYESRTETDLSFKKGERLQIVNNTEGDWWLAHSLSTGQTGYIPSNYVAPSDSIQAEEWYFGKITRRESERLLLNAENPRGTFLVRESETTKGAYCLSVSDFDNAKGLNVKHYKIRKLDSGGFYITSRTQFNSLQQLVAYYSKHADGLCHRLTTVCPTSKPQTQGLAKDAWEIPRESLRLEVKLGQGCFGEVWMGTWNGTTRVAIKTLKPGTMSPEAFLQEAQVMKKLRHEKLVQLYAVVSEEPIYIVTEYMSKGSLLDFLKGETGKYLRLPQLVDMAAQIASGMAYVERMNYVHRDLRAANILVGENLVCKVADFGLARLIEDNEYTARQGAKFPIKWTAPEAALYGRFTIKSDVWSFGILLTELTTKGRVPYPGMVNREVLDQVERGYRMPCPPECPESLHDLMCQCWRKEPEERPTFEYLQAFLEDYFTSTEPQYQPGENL
Sequence of PAK2 (Q13177 whole entry): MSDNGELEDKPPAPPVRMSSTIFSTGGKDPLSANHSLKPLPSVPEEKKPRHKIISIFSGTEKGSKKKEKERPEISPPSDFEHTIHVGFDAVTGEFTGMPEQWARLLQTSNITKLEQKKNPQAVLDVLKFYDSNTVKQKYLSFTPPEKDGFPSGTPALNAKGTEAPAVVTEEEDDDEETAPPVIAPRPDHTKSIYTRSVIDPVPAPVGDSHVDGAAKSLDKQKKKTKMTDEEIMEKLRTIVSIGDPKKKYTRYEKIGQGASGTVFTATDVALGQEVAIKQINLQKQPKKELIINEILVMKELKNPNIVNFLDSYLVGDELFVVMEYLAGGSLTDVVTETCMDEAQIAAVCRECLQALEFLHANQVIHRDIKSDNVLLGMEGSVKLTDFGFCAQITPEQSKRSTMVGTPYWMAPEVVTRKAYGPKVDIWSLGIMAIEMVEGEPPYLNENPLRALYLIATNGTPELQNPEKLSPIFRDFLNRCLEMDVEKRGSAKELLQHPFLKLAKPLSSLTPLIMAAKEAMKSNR

For the compound `CN[C@@H]1C[C@H]2O[C@@](C)([C@@H]1OC)n1c3ccccc3c3c4c(c5c6ccccc6n2c5c31)C(=O)NC4` [Staurosporine, reference compound], the nHill on NEK2 (control) is 0.9; on JNK1 (control), 1.8; at CDK1 (control), 1.1; on JAK3 (control), 2.2; at Src (control), 1.0; at SGK1 (control), over 3. Moreover, the nHill at c-Met (control) is on record as 1.8; at VEGFR2 (control), 1.2; at IRK (control), 1.0; on PAK2 (control) it was over 3; on MARK1 (control), 2.5.
Take `CC1(C)CCC2=C(O1)c1ccccc1C(=O)C2=O` [β-Lapachone]: the inhibition at 150 µM on NEK2 (setting [1]) came to 19%; at NEK2 (setting [2]) it was 18.4%; on NEK2 (setting [3]) it was 18.7%; on JNK1 (setting [1]) it was 59.8%; at JNK1 (setting [2]), 55.6%; on JNK1 (setting [3]) it was 57.7%. Also, the inhibition at 150 µM on CDK1 (setting [1]) was found to be 66%; on CDK1 (setting [2]) it was 68%; on CDK1 (setting [3]) it was 67%; on JAK3 (setting [4]), 69%; on JAK3 (setting [5]), 83.6%; on JAK3 (setting [6]) it was 54.5%. Also, the inhibition at 150 µM is 37.8% on Src (setting [4]); 36.1% on Src (setting [5]); 39.5% at Src (setting [6]); 54.5% on SGK1 (setting [4]); 54.4% on SGK1 (setting [5]); 54.5% at SGK1 (setting [6]). For the same compound, the inhibition at 150 µM came out at 45.3% at c-Met (setting [1]); 50.6% at c-Met (setting [2]); 47.9% at c-Met (setting [3]); 82.3% at VEGFR2 (setting [4]); 82.7% on VEGFR2 (setting [5]); 82% at VEGFR2 (setting [6]). Further, the inhibition at 150 µM on IRK (setting [4]) is 50.8%; at IRK (setting [5]) it was 50.9%; at IRK (setting [6]), 50.6%; at PAK2 (setting [1]), -34%; at PAK2 (setting [2]), 1.5%; on PAK2 (setting [3]) it was -16.2%. The inhibition at 150 µM at MARK1 (setting [4]) is -57.4%; on MARK1 (setting [5]), -70.1%; on MARK1 (setting [6]), -44.7%.
